Results from paper PMC9055851 (RSC Advances, 2020).

Biological target: Aβ42 peptide (Homo sapiens, UniProt P05067)
Assay: ThT fluorescence assay for inhibition of Aβ42 fibrillation
Assay type: biochemical

Sequence of Aβ42 peptide (P05067 672-713): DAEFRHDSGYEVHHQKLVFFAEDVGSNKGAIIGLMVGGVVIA

Structure (SMILES): O=[N+]([O-])c1ccc(/N=N/c2ccc3nc(-c4ccccc4)c(I)c(-c4ccccc4)c3c2)cc1 [Compound 1d, (E)-3-Iodo-6-((4-nitrophenyl)diazenyl)-2,4-diphenylquinoline]
- % inhibition for Aβ aggregation (Aβ42 25 μM, compounds 25 μM, PBS, 37 °C, 24 h): 75.2 ± 3.0%
- inhibition at 25 µM (read-out: % inhibition for Aβ aggregation, Aβ42 25 μM, compounds 25 μM, PBS, 37 °C, 24 h): ~75%
